Experiments:
Snail transgenic mice = experiment: Scleroderma model in Snail transgenic mice; format: in vivo, mouse
Procedure: UAS03 attenuates Scleroderma associated vascular permeability in Snail transgenic mice. Calorimetric quantification of Evan's blue dye extracted from back skin using UV spectrophotometer. […] Animals treated with UAS03 show more than 3-fold reduction in the dye leakage (FIG. 24).
Expression for fibrosis associated genes in the back skin of the Snail transgenic mice. The mRNA levels of the Collagen 1 were measured in back skin using RT-qPCR. […] The expression in UAS03 treated group, in both males and females, were reduced. The levels were separately assessed in males and females in vehicle and drug treated animals (FIG. 25).

[1] = system: colon cancer cell line (SW480); conditions: human
HT29 cells = experiment: RNA-Seq analysis of HT29 cells; format: cell-based, human; conditions: 50 μM, 24 h
Procedure: RNA sequencing: Total RNA was isolated from HT29 cells treated with vehicle and UroA (50 μM) (n=3) for 24 h and RNA was isolated using Trizol based lysis followed by Qiagen RNeasy kits. The isolated RNA was checked for integrity (RIN>9.5) using the Agilent Bioanalyzer 2100 system (Agilent Technologies, Santa Clara, CA) and quantified using a Qubit fluorometric assay (Thermo Fisher Scientific, Waltham, MA). Poly-A enriched […] libraries were prepared following Illumina's TruSeq Stranded mRNA LT library preparation protocol (Illumina Inc., San Diego, CA) using 1 μg of total RNA. All 15 samples were individually barcoded and quantitated with the KAPA Library Quantitation Kit for Illumina Platforms (Kapa Biosystems, Wilmington, MA) in conjunction with an Agilent Bioanalyzer DNA 1000 analysis (Agilent Technologies, Santa Clara, CA) for fragment size determination. The average fragment size was approximately 300 bp. […] of the pooled libraries with 1% PhiX spike-in was loaded on one NextSeq 500/550 75 cycle High Output Kit v2 sequencing flow cell and sequenced on the Illumina NextSeq 500 sequencer. The quality of the 1×75 bp sequences was checked using […] Quality Control Tool for High Throughput Sequence Data”). Trimming was not necessary with the median quality score above 30 (error probability=0.001 or 1 base call in 1,000 is predicted to be incorrect) across the entire length of the read and the lower quantile above a score of 20 (error probability=0.01) at the end of the read where there is an expected decrease in quality. The raw reads for each sample were directly aligned to the Homo sapiens (hg38) reference genome assembly (hg38.fa) using tophat2 (version 2.0.13) (KIM et al. (2013) “TopHat2: accurate alignment of transcriptomes in the presence of insertions, deletions and gene fusions” Genome biology, Vol. 14, Article […]), generating alignment files in bam format. Optional parameters include-no-coverage-search and -library-type fr-firststrand. […] On average, 26 million reads were aligned per sample with a mean alignment rate of 97 percent. […]

colon cancer cells = experiment: Clonogenic and wound healing assays; format: cell-based
human primary monocytes = experiment: LPS and EtOH induced TNF-α in human primary monocytes; format: cell-based; conditions: EtOH 25 mM 7 days; LPS 50 ng/ml
Procedure: FIG. 11: UroA reduces the LPS and EtOH induced TNF-α in human primary monocytes. (A) Human primary monocytes treated with UroA and LPS (50 ng/ml) for 6 h. The TNF-α in supernatant was measured. (B) Human primary monocytes were exposed to EtOH (25 mM) for 7 days. LPS (50 ng/ml) and UroA were added at day 6 and incubated for 24 h. The TNF-α levels in supernatant were measured using standard ELISA methods. Statistics performed using unpaired t-test using Graphpad Prism software. Error bars, ±SEM; ***p<0.001; **p<0.01
UroA reduces the LPS and EtOH induced TNF-α in human primary monocytes. Peripheral blood monocytes from chronic alcoholism patients produce increased spontaneous inflammatory mediators such as TNF-α, IL-6, IL-10 and IL-12. To mimic this condition, healthy peripheral blood monocytes were exposed for one week and tested whether UroA/UAS03 reduce the LPS-induced TNF-α.

T84 cells = experiment: EtOH-induced internalization of junction proteins; format: cell-based; conditions: 50 μM 1 h, then EtOH 40 mM 6 h
Text: The membrane and cytosolic fractions were isolated and evaluated for tight junction (TJ) and adherins junction (AJ) and desmosomes. […] (i.e., EtOH treatment alone has more cytosolic protein and EtOH+UroA has more membrane fraction) (FIG. 20).

SMILES	reduction in Evan's blue dye leakage in back skin (Snail transgenic mice; Snail transgenic mice)	Collagen 1 mRNA expression in back skin (Snail transgenic mice; males and females, RT-qPCR)	cell viability in combination with 5FU [1]	Cyp1A1 expression (RNA-Seq) (HT29 cells)	claudin 4 (Cldn4) expression (RNA-Seq) (HT29 cells)	heme oxygenase 1 (HMOX1 or HO1) expression (RNA-Seq) (HT29 cells)	colon cancer cell colony formation (clonogenic assay) (colon cancer cells)	cell growth and migration into scratch (wound healing assay) (colon cancer cells; in combination with 5FU)	LPS-induced TNF-α in chronically EtOH exposed human monocytes (human primary monocytes)	EtOH-induced internalization of membrane junction proteins to cytosol (T84 cells)
Oc1ccc2c(c1)COc1cc(O)ccc1-2 [UAS03, 6H-benzo[c]chromene-3,8-diol]	more than 3 fold	reduced								
O=c1oc2cc(O)ccc2c2ccc(O)cc12 [UroA, 3,8-dihydroxy-6H-dibenzo[b,d]pyran-6-one]			69%	among the top 3 UroA upregulated genes	upregulated	increased the expression	reduced	inhibited cell growth and migration	reduced	protected from EtOH-induced internalization

Source: US12377069B2, “Compounds, compositions, methods of using, and methods for preparing compounds” (UNIVERSITY OF LOUISVILLE RESEARCH FOUNDATION, INC., priority 2018, dated 2025)
